From patent publication US20200148937A1, “INHIBITING HYDROCARBON HYDRATE AGGLOMERATION” (COMMONWEALTH SCIENTIFIC AND INDUSTRIAL RESEARCH ORGANISATION, priority 2017, published 2020) come the findings set out here.

This data set in a line: X-ray diffraction of the gas hydrates formed. The format is physicochemical. The conditions noted are these: systems 1-3; combination of structure I and structure II hydrate in all three systems. The source says: FIG. 17(a) illustrates the X-ray diffraction pattern of the gas hydrates formed in systems 1-3.
The diffraction studies indicate that regardless of the nature of the AA used the XRD pattern of the solids formed are very similar indicating essentially the same hydrate mixtures are formed in each of systems 1-3. In short, there is a combination of structure I and structure II hydrate formed in all three systems considered.

For `Cc1c(C)c2c(c(C)c1OC(=O)CCC(=O)O)CCC(C)(CCCC(C)CCCC(C)CCCC(C)CCCC(C)C)O2` (stereo not shown) [tocopherol succinate], the “effect on structure of the hydrate formed (XRD pattern)” value is on record as “does not alter the structure of the hydrate formed”.
